# Reference: patent US20230085307A1, “PYRIDAZINONE COMPOUND AND HERBICIDE” (NISSAN CHEMICAL CORPORATION, priority 2019, published 2023)
# How the values were obtained:
# late watergrass = experiment: Test Example 1: herbicidal activity, application before weed generation under submerged conditions (Table 16, symbol A); assay type: in vivo, late watergrass (Echinochloa oryzicola); settings: for Herbicidal effect, A: late watergrass: amount of applied herbicide 320 g/ha
# Summary of the method: (§1)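 Emulsion formulation, water-diluted to set dose, was put onto the flooded surface (4 cm depth, alluvial soil) the same day weeds were sown and 2.5-leaf rice transplanted. After 3 weeks at 25-30 °C under glass, each species was rated 0 (≤5% kill) to 5 (≥90% kill).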
# Japanese bulrush = experiment: Test Example 1: herbicidal activity, application before weed generation under submerged conditions (Table 16, symbol B); assay type: in vivo, Japanese bulrush (Schoenoplectus juncoides); settings: for Herbicidal effect, B: Japanese bulrush: amount of applied herbicide 320 g/ha
# Summary of the method: as §1
# oval-leafed pondweed = experiment: Test Example 1: herbicidal activity, application before weed generation under submerged conditions (Table 16, symbol C); assay type: in vivo, oval-leafed pondweed (Monochoria vaginalis); settings: for Herbicidal effect, C: oval-leafed pondweed: amount of applied herbicide 320 g/ha
# Summary of the method: as §1
# barnyard grass [1] = experiment: Test Example 3: herbicidal effect by foliage application, Wagner pot (Table 18, symbol H); assay type: in vivo, barnyard grass (Echinochloa crus-galli); settings: for herbicidal effect on H: barnyard grass: amount of applied herbicide 320 g/ha
# Summary of the method: (§2)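 Plants were sown in alluvial soil held under 0.1–0.5 cm standing water and grown 14 days in a greenhouse at 25–30 °C. An emulsifiable formulation, water-diluted to the set dose, was then sprayed onto the foliage, and effects were scored three weeks later using previously defined criteria.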
# Chinese sprangletop = experiment: Test Example 3: herbicidal effect by foliage application, Wagner pot (Table 18, symbol D); assay type: in vivo, chinese sprangletop (Leptochloa chinensis); settings: for herbicidal effect on D: Chinese sprangletop: amount of applied herbicide 320 g/ha
# Summary of the method: as §2
# rice flat sedge = experiment: Test Example 3: herbicidal effect by foliage application, Wagner pot (Table 18, symbol E); assay type: in vivo, rice flat sedge (Cyperus iria); settings: for herbicidal effect on E: rice flat sedge: amount of applied herbicide 320 g/ha
# Summary of the method: as §2
# southern crabgrass = experiment: Test Example 5: herbicidal effect by foliage application, plastic box (Table 20, symbol F); assay type: in vivo, southern crabgrass (Digitaria ciliaris); settings: for F: southern crabgrass, herbicidal effect grade: three weeks after application
# Summary of the method: (§3)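 Sow seeds spot-wise in sterilized diluvial soil; cover with ~1.5 cm soil. Grow 14 days in greenhouse, 25° C. to 30° C. Spray foliage with emulsion diluted to predetermined amount. Rate effect after 3 weeks.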
# green foxtail = experiment: Test Example 5: herbicidal effect by foliage application, plastic box (Table 20, symbol G); assay type: in vivo, green foxtail (Setaria viridis); settings: for G: green foxtail, herbicidal effect grade: three weeks after application
# Summary of the method: as §3
# barnyard grass [2] = experiment: Test Example 5: herbicidal effect by foliage application, plastic box (Table 20, symbol H); assay type: in vivo, barnyard grass (Echinochloa crus-galli); settings: for H: barnyard grass, herbicidal effect grade: three weeks after application
# Summary of the method: as §3
# wild oat = experiment: Test Example 5: herbicidal effect by foliage application, plastic box (Table 20, symbol I); assay type: in vivo, wild oat (Avena fatua); settings: for I: wild oat, herbicidal effect grade: three weeks after application
# Summary of the method: as §3
# blackgrass = experiment: Test Example 5: herbicidal effect by foliage application, plastic box (Table 20, symbol J); assay type: in vivo, blackgrass (Alopecurus myosuroides); settings: for J: blackgrass, herbicidal effect grade: three weeks after application
# Summary of the method: as §3
# Italian ryegrass = experiment: Test Example 5: herbicidal effect by foliage application, plastic box (Table 20, symbol K); assay type: in vivo, Italian ryegrass (Lolium multiflorum); settings: for K: Italian ryegrass, herbicidal effect grade: three weeks after application
# Summary of the method: as §3
# windgrass = experiment: Test Example 5: herbicidal effect by foliage application, plastic box (Table 20, symbol L); assay type: in vivo, windgrass (Apera spica-venti); settings: for L: windgrass, herbicidal effect grade: three weeks after application
# Summary of the method: as §3
# velvetleaf = experiment: Test Example 5: herbicidal effect by foliage application, plastic box (Table 20, symbol M); assay type: in vivo, velvetleaf (Abutilon theophrasti); settings: for M: velvetleaf, herbicidal effect grade: three weeks after application
# Summary of the method: as §3
# redroot pigweed = experiment: Test Example 5: herbicidal effect by foliage application, plastic box (Table 20, symbol N); assay type: in vivo, redroot pigweed (Amaranthus retroflexus); settings: for N: redroot pigweed, herbicidal effect grade: three weeks after application
# Summary of the method: as §3
# lambsquarters = experiment: Test Example 5: herbicidal effect by foliage application, plastic box (Table 20, symbol O); assay type: in vivo, lambsquarters (Chenopodium album); settings: for O: lambsquarters, herbicidal effect grade: three weeks after application
# Summary of the method: as §3
# chickweed = experiment: Test Example 5: herbicidal effect by foliage application, plastic box (Table 20, symbol P); assay type: in vivo, common chickweed (Stellaria media); settings: for P: chickweed, herbicidal effect grade: three weeks after application
# Summary of the method: as §3
# persian speedwell = experiment: Test Example 5: herbicidal effect by foliage application, plastic box (Table 20, symbol R); assay type: in vivo, Persian speedwell (Veronica persica); settings: for R: persian speedwell, herbicidal effect grade: three weeks after application
# Summary of the method: as §3
# [3] = 320 g/ha, foliage application after 14-day growth, evaluated three weeks after application
# [4] = foliage application, AAH 320 g/ha, evaluated three weeks after application
SMILES,"Herbicidal effect, A: late watergrass (late watergrass)","Herbicidal effect, B: Japanese bulrush (Japanese bulrush)","Herbicidal effect, C: oval-leafed pondweed (oval-leafed pondweed)",herbicidal effect on H: barnyard grass (barnyard grass [1]),herbicidal effect on D: Chinese sprangletop (Chinese sprangletop),herbicidal effect on E: rice flat sedge (rice flat sedge),"F: southern crabgrass, herbicidal effect grade (southern crabgrass; foliage application, 320 g/ha)","G: green foxtail, herbicidal effect grade (green foxtail; foliage application, 320 g/ha)","H: barnyard grass, herbicidal effect grade (barnyard grass [2]; foliage application, 320 g/ha)","I: wild oat, herbicidal effect grade (wild oat; foliage application, 320 g/ha)","J: blackgrass, herbicidal effect grade (blackgrass; foliage application, 320 g/ha)","K: Italian ryegrass, herbicidal effect grade (Italian ryegrass; foliage application, 320 g/ha)","L: windgrass, herbicidal effect grade (windgrass; foliage application, 320 g/ha)","M: velvetleaf, herbicidal effect grade (velvetleaf; foliage application, 320 g/ha)","N: redroot pigweed, herbicidal effect grade (redroot pigweed; foliage application, 320 g/ha)","O: lambsquarters, herbicidal effect grade (lambsquarters; foliage application, 320 g/ha)","P: chickweed, herbicidal effect grade (chickweed; foliage application, 320 g/ha)","R: persian speedwell, herbicidal effect grade (persian speedwell; foliage application, 320 g/ha)",further results
COc1ccccc1-c1sc2cc(F)ccc2c1-c1c(OC(=O)N2CCOCC2)c(C)nn(C)c1=O [3-025],0 (Herbicidal rate of 5% or less (almost no effect)),0 (Herbicidal rate of 5% or less (almost no effect)),3 (Herbicidal rate of 40% or more and less than 70%),3 (Herbicidal rate of 40% or more and less than 70%),0 (Herbicidal rate of 5% or less (almost no effect)),2 (Herbicidal rate of 20% or more and less than 40%),0 (Herbicidal rate of 5% or less (almost no effect)),0 (Herbicidal rate of 5% or less (almost no effect)),0 (Herbicidal rate of 5% or less (almost no effect)),0 (Herbicidal rate of 5% or less (almost no effect)),0 (Herbicidal rate of 5% or less (almost no effect)),0 (Herbicidal rate of 5% or less (almost no effect)),0 (Herbicidal rate of 5% or less (almost no effect)),0 (Herbicidal rate of 5% or less (almost no effect)),1 (Herbicidal rate of 5% or more and less than 20%),0 (Herbicidal rate of 5% or less (almost no effect)),3 (Herbicidal rate of 40% or more and less than 70%),0 (Herbicidal rate of 5% or less (almost no effect)),
COc1ccc2c(-c3c(OCC#N)c(C)nn(C)c3=O)c(-c3ccccc3OC)sc2c1 [3-153],3 (Herbicidal rate of 40% or more and less than 70%),3 (Herbicidal rate of 40% or more and less than 70%),3 (Herbicidal rate of 40% or more and less than 70%),,,,,,,,,,,,,,,,herbicidal effect on barnyard grass (H) (barnyard grass [1]; 320 g/ha): 5 (Herbicidal rate of 90% or more (almost completely withered)); herbicidal effect on Chinese sprangletop (D) (Chinese sprangletop; 320 g/ha): 2 (Herbicidal rate of 20% or more and less than 40%); herbicidal effect on rice flat sedge (E) (rice flat sedge; 320 g/ha): 0 (Herbicidal rate of 5% or less (almost no effect)); herbicidal effect on F: southern crabgrass (evaluation grade 0-5) (southern crabgrass; [3]): 3 (Herbicidal rate of 40% or more and less than 70%); herbicidal effect on G: green foxtail (evaluation grade 0-5) (green foxtail; [3]): 5 (Herbicidal rate of 90% or more (almost completely withered)); herbicidal effect on H: barnyard grass (evaluation grade 0-5) (barnyard grass [2]; [3]): 5 (Herbicidal rate of 90% or more (almost completely withered)); herbicidal effect on I: wild oat (evaluation grade 0-5) (wild oat; [3]): 0 (Herbicidal rate of 5% or less (almost no effect)); herbicidal effect on J: blackgrass (evaluation grade 0-5) (blackgrass; [3]): 3 (Herbicidal rate of 40% or more and less than 70%); herbicidal effect on K: Italian ryegrass (evaluation grade 0-5) (Italian ryegrass; [3]): 0 (Herbicidal rate of 5% or less (almost no effect)); herbicidal effect on L: windgrass (evaluation grade 0-5) (windgrass; [3]): 4 (Herbicidal rate of 70% or more and less than 90%); herbicidal effect on M: velvetleaf (evaluation grade 0-5) (velvetleaf; [3]): 5 (Herbicidal rate of 90% or more (almost completely withered)); herbicidal effect on N: redroot pigweed (evaluation grade 0-5) (redroot pigweed; [3]): 4 (Herbicidal rate of 70% or more and less than 90%); herbicidal effect on O: lambsquarters (evaluation grade 0-5) (lambsquarters; [3]): 4 (Herbicidal rate of 70% or more and less than 90%); herbicidal effect on P: chickweed (evaluation grade 0-5) (chickweed; [3]): 5 (Herbicidal rate of 90% or more (almost completely withered)); herbicidal effect on R: persian speedwell (evaluation grade 0-5) (persian speedwell; [3]): 4 (Herbicidal rate of 70% or more and less than 90%)
Cc1nn(C)c(=O)c(-c2c(-c3ccc(OC(F)F)cc3)sc3ccc(F)cc23)c1OCC(F)(F)F [2-302],,,,3 (Herbicidal rate of 40% or more and less than 70%),0 (Herbicidal rate of 5% or less (almost no effect)),3 (Herbicidal rate of 40% or more and less than 70%),,,,,,,,,,,,,"Herbicidal effect on A: late watergrass (grade 0-5) (late watergrass; 320 g/ha applied herbicide): 3 (Herbicidal rate of 40% or more and less than 70%); Herbicidal effect on B: Japanese bulrush (grade 0-5) (Japanese bulrush; 320 g/ha applied herbicide): 0 (Herbicidal rate of 5% or less (almost no effect)); Herbicidal effect on C: oval-leafed pondweed (grade 0-5) (oval-leafed pondweed; 320 g/ha applied herbicide): 0 (Herbicidal rate of 5% or less (almost no effect)); F: southern crabgrass, herbicidal effect (criteria 0-5) (southern crabgrass; [4]): 0 (Herbicidal rate of 5% or less (almost no effect)); G: green foxtail, herbicidal effect (criteria 0-5) (green foxtail; [4]): 0 (Herbicidal rate of 5% or less (almost no effect)); H: barnyard grass, herbicidal effect (criteria 0-5) (barnyard grass [2]; [4]): 0 (Herbicidal rate of 5% or less (almost no effect)); I: wild oat, herbicidal effect (criteria 0-5) (wild oat; [4]): 0 (Herbicidal rate of 5% or less (almost no effect)); J: blackgrass, herbicidal effect (criteria 0-5) (blackgrass; [4]): 0 (Herbicidal rate of 5% or less (almost no effect)); K: Italian ryegrass, herbicidal effect (criteria 0-5) (Italian ryegrass; [4]): 0 (Herbicidal rate of 5% or less (almost no effect)); L: windgrass, herbicidal effect (criteria 0-5) (windgrass; [4]): 0 (Herbicidal rate of 5% or less (almost no effect)); M: velvetleaf, herbicidal effect (criteria 0-5) (velvetleaf; [4]): 0 (Herbicidal rate of 5% or less (almost no effect)); N: redroot pigweed, herbicidal effect (criteria 0-5) (redroot pigweed; [4]): 3 (Herbicidal rate of 40% or more and less than 70%); O: lambsquarters, herbicidal effect (criteria 0-5) (lambsquarters; [4]): 1 (Herbicidal rate of 5% or more and less than 20%); P: chickweed, herbicidal effect (criteria 0-5) (chickweed; [4]): 4 (Herbicidal rate of 70% or more and less than 90%); R: persian speedwell, herbicidal effect (criteria 0-5) (persian speedwell; [4]): 1 (Herbicidal rate of 5% or more and less than 20%)"
COc1ccccc1-c1sc2cc(F)ccc2c1-c1c(OC(=O)SC(C)(C)C)c(C)nn(C)c1=O [3-026],2 (Herbicidal rate of 20% or more and less than 40%),0 (Herbicidal rate of 5% or less (almost no effect)),3 (Herbicidal rate of 40% or more and less than 70%),4 (Herbicidal rate of 70% or more and less than 90%),0 (Herbicidal rate of 5% or less (almost no effect)),2 (Herbicidal rate of 20% or more and less than 40%),0 (Herbicidal rate of 5% or less (almost no effect)),0 (Herbicidal rate of 5% or less (almost no effect)),0 (Herbicidal rate of 5% or less (almost no effect)),0 (Herbicidal rate of 5% or less (almost no effect)),0 (Herbicidal rate of 5% or less (almost no effect)),0 (Herbicidal rate of 5% or less (almost no effect)),0 (Herbicidal rate of 5% or less (almost no effect)),0 (Herbicidal rate of 5% or less (almost no effect)),5 (Herbicidal rate of 90% or more (almost completely withered)),1 (Herbicidal rate of 5% or more and less than 20%),0 (Herbicidal rate of 5% or less (almost no effect)),0 (Herbicidal rate of 5% or less (almost no effect)),
